# Test results published in ChEMBL document CHEMBL5233226 (Eur J Med Chem, 2020).
# *1 amine or outer side, *2 acyl side, *3 side chain or, on linkers, in order; H or OH if unused. Where a SMILES comes first, the peptide text is derived from it. Bridges are numbered along the chain shown (N, C = ends). TBMB = c1c(C[*:1])cc(C[*:3])cc1C[*:2]
# Assays:
# [1] = target: T1, Plasma kallikrein (Homo sapiens, UniProt P03952); test: Inhibition of plasma kallikrein (unknown origin)
# [2] = target: T1, Plasma kallikrein; test: Inhibition of human plasma kallikrein using H-DPro-Phe-Arg-AFC as substrate
# [3] = target: T2, Kallikrein-1 (Homo sapiens, UniProt P06870); test: Inhibition of human KLK1 using H-DVal-Leu-Arg-AFC as substrate
# T2 sequence (P06870 whole entry): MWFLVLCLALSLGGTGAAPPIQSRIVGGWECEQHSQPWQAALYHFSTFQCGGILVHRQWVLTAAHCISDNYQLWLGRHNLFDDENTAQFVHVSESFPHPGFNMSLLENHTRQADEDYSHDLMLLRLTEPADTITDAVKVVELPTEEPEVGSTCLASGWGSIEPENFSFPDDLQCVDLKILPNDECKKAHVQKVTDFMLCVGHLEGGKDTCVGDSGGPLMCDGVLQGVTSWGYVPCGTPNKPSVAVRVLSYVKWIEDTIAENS
# [4] = target: T1, Plasma kallikrein; test: Inhibition of human plasma kallikrein using H-D-Pro-Phe-Arg-p-nitroaniline as substrate assessed as inhibition constant
# [5] = target: T2, Kallikrein-1; test: Inhibition of human KLK1
# [6] = target: T3, Coagulation factor XI (Homo sapiens, UniProt P03951); test: Inhibition of human fXIa
# T3 sequence (P03951 19-387 limits assumed): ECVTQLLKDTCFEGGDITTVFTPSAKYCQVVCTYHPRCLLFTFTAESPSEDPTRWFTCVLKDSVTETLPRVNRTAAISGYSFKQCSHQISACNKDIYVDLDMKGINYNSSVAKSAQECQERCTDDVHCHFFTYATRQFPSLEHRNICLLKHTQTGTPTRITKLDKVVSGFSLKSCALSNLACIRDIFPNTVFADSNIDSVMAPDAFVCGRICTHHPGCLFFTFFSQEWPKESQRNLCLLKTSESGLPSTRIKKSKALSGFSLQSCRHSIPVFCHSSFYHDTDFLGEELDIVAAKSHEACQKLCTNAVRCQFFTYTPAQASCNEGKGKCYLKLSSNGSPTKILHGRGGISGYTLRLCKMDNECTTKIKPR
# T3 sequence (P03951 388-625 limits assumed): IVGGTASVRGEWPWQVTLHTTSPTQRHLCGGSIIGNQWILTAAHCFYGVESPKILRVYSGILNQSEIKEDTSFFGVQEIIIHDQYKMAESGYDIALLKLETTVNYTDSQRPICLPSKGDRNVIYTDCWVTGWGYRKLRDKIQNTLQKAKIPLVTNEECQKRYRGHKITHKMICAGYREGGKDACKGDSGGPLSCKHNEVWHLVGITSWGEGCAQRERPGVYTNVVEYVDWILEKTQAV
# [7] = target: T2, Kallikrein-1; test: Inhibition of KLK1 (unknown origin)
# [8] = target: T3, Coagulation factor XI; test: Inhibition of fXIa (unknown origin)
# [9] = target: T4, Trypsin (Homo sapiens, UniProt P07477+P07478+P35030); test: Inhibition of human trypsin; assay type: protein assay
# [10] = target: T3, Coagulation factor XI; test: Inhibition of human fXIa using Z-Gly-Pro-Arg-AFC as substrate
# [11] = target: T5, Prothrombin (Homo sapiens, UniProt P00734); test: Inhibition of human thrombin
# [12] = target: T6, Coagulation factor XII (Homo sapiens, UniProt P00748); test: Inhibition of human fXIIa using H-DPro-Phe-Arg-AFC as substrate
# T6 sequence (P00748 whole entry): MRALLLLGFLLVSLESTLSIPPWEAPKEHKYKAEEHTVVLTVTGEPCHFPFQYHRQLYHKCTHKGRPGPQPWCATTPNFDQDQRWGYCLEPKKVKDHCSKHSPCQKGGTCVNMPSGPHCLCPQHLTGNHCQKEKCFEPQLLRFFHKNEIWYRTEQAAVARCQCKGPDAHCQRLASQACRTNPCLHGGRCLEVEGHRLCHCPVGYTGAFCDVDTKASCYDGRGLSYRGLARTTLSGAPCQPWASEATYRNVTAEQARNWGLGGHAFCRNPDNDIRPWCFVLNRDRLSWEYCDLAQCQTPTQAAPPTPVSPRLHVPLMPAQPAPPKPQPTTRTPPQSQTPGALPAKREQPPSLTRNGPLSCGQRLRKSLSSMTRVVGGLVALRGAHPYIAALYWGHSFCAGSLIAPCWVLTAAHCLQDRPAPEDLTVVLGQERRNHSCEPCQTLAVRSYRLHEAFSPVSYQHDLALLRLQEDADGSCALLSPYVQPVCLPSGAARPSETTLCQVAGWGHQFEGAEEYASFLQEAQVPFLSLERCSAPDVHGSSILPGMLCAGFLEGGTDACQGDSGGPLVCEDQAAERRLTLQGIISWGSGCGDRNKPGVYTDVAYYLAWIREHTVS
# [13] = target: T7, Plasminogen (Homo sapiens, UniProt P00747); test: Inhibition of human plasmin
# T7 sequence (P00747 97-580 limits assumed): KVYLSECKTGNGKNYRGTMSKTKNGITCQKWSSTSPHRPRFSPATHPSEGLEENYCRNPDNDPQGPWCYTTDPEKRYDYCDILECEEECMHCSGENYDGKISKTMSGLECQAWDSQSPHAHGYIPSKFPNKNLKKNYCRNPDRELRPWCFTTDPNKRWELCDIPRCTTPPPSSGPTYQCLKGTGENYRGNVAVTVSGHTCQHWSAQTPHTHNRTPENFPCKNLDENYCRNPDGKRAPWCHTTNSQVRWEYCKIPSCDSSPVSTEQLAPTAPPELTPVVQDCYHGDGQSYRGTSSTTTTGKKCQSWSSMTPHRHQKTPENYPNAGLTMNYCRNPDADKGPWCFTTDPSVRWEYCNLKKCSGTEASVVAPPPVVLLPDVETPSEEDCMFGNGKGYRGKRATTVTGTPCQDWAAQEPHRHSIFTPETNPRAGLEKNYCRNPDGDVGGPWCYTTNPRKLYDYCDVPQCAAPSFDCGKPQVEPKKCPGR
# T7 sequence (P00747 581-810 limits assumed): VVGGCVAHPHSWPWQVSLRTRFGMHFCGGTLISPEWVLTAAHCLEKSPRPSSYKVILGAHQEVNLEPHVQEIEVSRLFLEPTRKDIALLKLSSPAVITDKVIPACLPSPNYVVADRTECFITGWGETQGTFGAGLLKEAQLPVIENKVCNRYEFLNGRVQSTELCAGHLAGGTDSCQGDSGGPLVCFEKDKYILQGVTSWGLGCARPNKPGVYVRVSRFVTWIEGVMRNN
# [14] = target: T1, Plasma kallikrein; test: Inhibition of human plasma kallikrein usingPro-Phe-Arg-AMC as substrate incubated for 5 mins; assay type: single protein
# [15] = target: T6, Coagulation factor XII; test: Inhibition of human fXIIa incubated for 1 hrs
# [16] = target: T1, Plasma kallikrein; test: Inhibition of human plasma kallikrein incubated for 1 hrs
# [17] = target: Coagulation factor X (Homo sapiens, UniProt P00742); test: Inhibition of fXa (unknown origin)
# Chain of Coagulation factor X (P00742 41-179 limits assumed): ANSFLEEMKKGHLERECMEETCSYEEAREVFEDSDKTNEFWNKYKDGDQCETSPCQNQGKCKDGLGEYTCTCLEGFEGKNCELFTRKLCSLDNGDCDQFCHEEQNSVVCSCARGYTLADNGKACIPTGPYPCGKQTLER
# Chain of Coagulation factor X (P00742 235-488 limits assumed): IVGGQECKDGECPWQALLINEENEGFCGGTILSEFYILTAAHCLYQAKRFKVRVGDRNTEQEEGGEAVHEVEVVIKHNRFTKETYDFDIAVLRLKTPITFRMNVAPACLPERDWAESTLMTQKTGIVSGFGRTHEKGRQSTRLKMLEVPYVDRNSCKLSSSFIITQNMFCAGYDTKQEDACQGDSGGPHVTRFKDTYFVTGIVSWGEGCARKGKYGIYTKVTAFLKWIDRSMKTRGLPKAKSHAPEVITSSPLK
# [18] = target: T6, Coagulation factor XII; test: Inhibition of fXIIa (unknown origin)
# [19] = target: T5, Prothrombin; test: Inhibition of thrombin (unknown origin)
# [20] = target: T6, Coagulation factor XII; test: Inhibition of human fXIIa using Z-GGR-AMC as substrate assessed as inhibition constant by fluorescence plate reader analysis
# [21] = target: T3, Coagulation factor XI; test: Inhibition of human fXIa using Boc-FSR-AMC as substrate assessed as inhibition constant by fluorescence plate reader analysis
# [22] = target: T7, Plasminogen; test: Inhibition of human plasmin using H-d-VLK-AM as substrate assessed as inhibition constant by fluorescence plate reader analysis
# [23] = target: T5, Prothrombin; test: Inhibition of human thrombin using Z-GGR-AMC as substrate assessed as inhibition constant by fluorescence plate reader analysis
# [24] = target: Plasma kallikrein (Rattus norvegicus, UniProt P14272); test: Inhibition of rat recombinant plasma kallikrein using Z-FR-AMC as substrate assessed as inhibition constant by fluorescence plate reader analysis
# Chain of Plasma kallikrein (Rattus norvegicus, UniProt P14272) (P14272 20-390 limits assumed): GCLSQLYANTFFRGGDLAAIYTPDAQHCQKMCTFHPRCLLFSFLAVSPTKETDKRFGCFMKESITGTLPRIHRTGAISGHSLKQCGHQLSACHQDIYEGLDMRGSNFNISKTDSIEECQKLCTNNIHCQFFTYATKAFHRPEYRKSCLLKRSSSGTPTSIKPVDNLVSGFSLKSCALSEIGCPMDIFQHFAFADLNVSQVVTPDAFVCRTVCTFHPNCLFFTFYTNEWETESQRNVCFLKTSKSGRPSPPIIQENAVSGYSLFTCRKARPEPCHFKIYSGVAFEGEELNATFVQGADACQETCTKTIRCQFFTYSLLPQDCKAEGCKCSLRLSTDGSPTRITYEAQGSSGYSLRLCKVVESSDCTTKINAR
# Chain of Plasma kallikrein (Rattus norvegicus, UniProt P14272) (P14272 391-638 limits assumed): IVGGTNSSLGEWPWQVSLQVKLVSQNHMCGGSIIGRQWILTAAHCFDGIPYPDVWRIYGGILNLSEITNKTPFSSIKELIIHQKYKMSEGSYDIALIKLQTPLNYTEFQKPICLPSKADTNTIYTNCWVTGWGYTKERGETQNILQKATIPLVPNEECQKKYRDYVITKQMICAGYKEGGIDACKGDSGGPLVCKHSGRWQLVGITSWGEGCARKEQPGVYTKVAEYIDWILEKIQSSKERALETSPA
# [25] = target: T3, Coagulation factor XI; test: Inhibition of human fXIa incubated for 1 hrs
# [26] = target: T7, Plasminogen; test: Inhibition of plasmin (unknown origin)
# [27] = target: T4, Trypsin; test: Inhibition of trypsin (unknown origin); assay type: protein assay
# [28] = target: T5, Prothrombin; test: Inhibition of human thrombin by fluorescence based analysis
# [29] = target: T7, Plasminogen; test: Inhibition of human plasmin by fluorescence based analysis
# [30] = target: Urokinase-type plasminogen activator (Homo sapiens, UniProt P00749); test: Inhibition of Urokinase (unknown origin)
# T1 sequence (P03952 20-390 limits assumed): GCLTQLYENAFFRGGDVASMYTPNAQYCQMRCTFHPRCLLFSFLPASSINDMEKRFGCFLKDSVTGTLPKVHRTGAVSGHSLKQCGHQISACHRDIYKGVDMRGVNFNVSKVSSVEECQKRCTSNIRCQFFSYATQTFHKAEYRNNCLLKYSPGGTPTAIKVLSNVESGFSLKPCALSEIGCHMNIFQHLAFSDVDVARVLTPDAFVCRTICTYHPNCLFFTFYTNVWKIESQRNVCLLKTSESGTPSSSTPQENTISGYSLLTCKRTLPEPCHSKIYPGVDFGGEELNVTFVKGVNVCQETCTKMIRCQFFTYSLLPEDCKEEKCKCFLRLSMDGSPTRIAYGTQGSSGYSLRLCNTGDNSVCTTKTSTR
# T1 sequence (P03952 391-638 limits assumed): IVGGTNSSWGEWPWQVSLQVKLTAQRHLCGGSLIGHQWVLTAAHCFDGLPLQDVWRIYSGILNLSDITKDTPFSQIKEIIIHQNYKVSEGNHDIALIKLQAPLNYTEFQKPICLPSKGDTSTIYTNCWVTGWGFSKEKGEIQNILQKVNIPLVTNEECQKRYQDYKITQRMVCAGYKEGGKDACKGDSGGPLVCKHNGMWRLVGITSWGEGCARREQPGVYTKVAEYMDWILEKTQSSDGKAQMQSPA
structure (smiles),measurement,setting,value
Nc1nn(Cc2ccc(Cn3ccccc3=O)cc2)cc1C(=O)N[C@H]1CCN(c2cccc(Cl)c2)C1,IC50,[1],4.8 nM
CCOc1ccc(C[C@@H](NC(=O)c2ccccc2)C(=O)N[C@H](C(=O)NCc2ccc(CN)cc2)[C@H](O)c2ccccc2)cc1,IC50,[2],20 nM
same,IC50,[3],7200 nM
CCCOC(c1ccccc1)c1cccc(NC(=O)c2cc(C(F)(F)F)nn2-c2cccc(CN)c2)c1 (stereo not given),IC50,[4],> 50000 nM
N=C(N)c1cccc(-n2nc(C(F)(F)F)cc2C(=O)Nc2cc(C(NCC3CC3)c3ccccc3)ccc2F)c1 (stereo not given),IC50,[4],100 nM
Cc1cc(C)n(Cc2ccc(Cn3cc(C(=O)NCc4c(C)cc(N)nc4C)nn3)cc2)n1,IC50,[5],> 40000 nM
same,IC50,[1],2.9 nM
same,IC50,[6],> 10000 nM
CCOc1ccc(C[C@@H](NC(=O)c2sccc2C)C(=O)N[C@@H](Cc2ccccc2)C(=O)NCc2ccc(CN)cc2)cc1,IC50,[2],10 nM
Nc1nn(Cc2ccc(Cn3ccccc3=O)cc2)cc1C(=O)NCCOc1cccc(Cl)c1,IC50,[7],2.9 nM
same,IC50,[8],2.9 nM
COc1ccnc(CNC(=O)c2cn(Cc3ccc(Cn4ccccc4=O)cc3)nc2C(F)(F)F)c1F,IC50,[9],> 40000 nM
same,IC50,[10],> 40000 nM
same,IC50,[11],> 40000 nM
same,IC50,[12],> 4000 nM
same,IC50,[7],> 4000 nM
same,IC50,[13],> 40000 nM
CO[C@@H]1C[C@H](C(=O)Nc2cc(C(N)(CCC3CC3)c3ccccn3)ccc2F)N(C(=O)Nc2ccc(Cl)cn2)C1 (stereo not given in full),IC50,[4],< 50 nM
NCc1cccc(-n2nc(C(F)(F)F)cc2C(=O)Nc2cccc(C(O)c3ccccc3)c2)c1 (stereo not given),IC50,[4],> 50000 nM
NC(CCC1CC1)(c1ccc(F)c(NC(=O)[C@H]2CC(F)(F)CN2C(=O)Nc2ccc(Cl)cn2)c1)c1ccccn1 (stereo not given in full),IC50,[4],< 50 nM
Fc1c(CNc2ncnc3nc(Cc4ccc5ncc(Cl)cc5c4)[nH]c23)ccc2[nH]cc(Cl)c12,IC50,[14],< 100 nM
Cc1nc(N)cc2c1CNC(=O)c1cnn(c1)Cc1ccc(Cn3cccn3)cc1OCCC/C=C\CCO2,IC50,[15],3600 nM
same,IC50,[16],2 nM
N=C(N)c1ccc(CNC(=O)c2cnn(Cc3ccccc3)c2)cc1,IC50,[17],> 10000 nM
same,IC50,[18],> 10000 nM
same,IC50,[19],> 10000 nM
same,IC50,[1],90 nM
same,IC50,[8],> 10000 nM
Nc1nccc2ccc(-n3nc(C(F)(F)F)cc3C(=O)Nc3cc(C(NCC4CC4)c4ccccc4)ccc3F)cc12 (stereo not given),IC50,[4],100 nM
Fc1cc2[nH]cc(Cl)c2cc1CNc1ncnc2nc(Cc3ccc4ncc(Cl)cc4c3)[nH]c12,IC50,[14],< 100 nM
CC(N)C(=O)NC1CSCc2cc3cc(c2)CSCC(C(=O)NC(C)C(N)=O)NC(=O)C(CCCNC(=N)N)NC(=O)C(C(C)C)NC(=O)C(CC(N)=O)NC(=O)C(CSC3)NC(=O)C(C)NC(=O)C(CCCCN)NC(=O)C(Cc2ccccc2)NC1=O (stereo not given) (H-ACFKACNVRCA-NH2; linker 2-6-10 via TBMB; configuration not given here),Ki,[20],> 50000 nM
same,Ki,[21],> 50000 nM
same,Ki,[22],5.2 nM
same,IC50,[23],> 50000 nM
same,Ki,[24],27.2 nM
Cc1cc(N)nc(C)c1CNC(=O)c1cnn(Cc2ccc(Cn3cccn3)cc2)c1,IC50,[25],106000 nM
same,IC50,[16],2.4 nM
CO[C@@H]1C[C@H](C(=O)Nc2cc(C(N)(CCC3CC3)c3cccc(C#N)c3)ccc2F)N(C(=O)Nc2ccc(Cl)cn2)C1 (stereo not given in full),IC50,[4],< 50 nM
COCc1nn(Cc2ccc(Cn3cccn3)cc2)cc1C(=O)NCc1ccc2c(N)nccc2c1C,IC50,[2],0.56 nM
Fc1cc2[nH]cc(Cl)c2cc1CNc1ncnc2nc(Cc3ccc4ncc(C(F)(F)F)cc4c3)[nH]c12,IC50,[14],< 100 nM
COC(=O)c1ccc(NC(=O)[C@H](CCCCN)NC(=O)C2CCC(CN)CC2)cc1 (stereo not given in full),IC50,[26],> 500000 nM
same,IC50,[1],50000 nM
CC(=O)c1ccc(NC(=O)C(CCCNC(=N)NS(=O)(=O)c2c(C)cc(C)cc2C)NC(=O)C2CCC(CN)CC2)cc1 (stereo not given),IC50,[26],42000 nM
same,IC50,[1],2000 nM
COCc1nn(Cc2ccc(Cn3cc(F)ccc3=O)cc2)cc1C(=O)NCc1nccc(OC)c1F,IC50,[27],> 40000 nM
same,IC50,[19],> 40000 nM
same,IC50,[7],> 40000 nM
same,IC50,[26],> 40000 nM
NCc1cccc(-n2nc(C(F)(F)F)cc2C(=O)Nc2cccc(C(OCC3CC3)c3ccccc3)c2)c1 (stereo not given),IC50,[4],100 nM
same,Ki,[4],0.1 nM
Clc1cnc2ccc(Cc3nc4ncnc(NCc5n[nH]c6ccc(Cl)cc56)c4[nH]3)cc2c1,IC50,[14],< 100 nM
NC(CCC1CC1)(c1ccc(F)c(NC(=O)[C@H]2C[C@](O)(c3ccccc3)CN2C(=O)Nc2ccc(Cl)cc2)c1)c1ccccn1 (stereo not given in full),IC50,[4],< 50 nM
NC(CCC1CC1)(c1ccc(F)c(NC(=O)[C@H]2C[C@@H](O)CN2C(=O)Nc2ccc(Cl)cc2)c1)c1ccccn1 (stereo not given in full),IC50,[4],< 50 nM
CCO[C@@H]1C[C@H](C(=O)Nc2cc(C(N)(CCC3CC3)c3ccccn3)ccc2F)N(C(=O)Nc2ccc(Cl)cc2)C1 (stereo not given in full),IC50,[4],< 50 nM
CO[C@@H]1C[C@H](C(=O)Nc2cc(C(N)(CCC3CC3)c3ccccn3)ccc2F)N(C(=O)Nc2ccc(Cl)cc2)C1 (stereo not given in full),IC50,[4],< 50 nM
NCc1cccc(-n2nc(C(F)(F)F)cc2C(=O)Nc2cc(C(OCC3CC3)c3ccccc3O)ccc2F)c1 (stereo not given),IC50,[4],100 nM
Cc1cnn(Cc2ccc(Cn3cc(C(=O)NCc4cnc5[nH]cc(Cl)c5c4)c(C#N)n3)cc2)c1,IC50,[16],1 nM
CCOc1ccc(C[C@@H](NC(=O)c2ccccc2)C(=O)N[C@@H](Cc2ccccc2)C(=O)NCc2ccc(CN)cc2)cc1,IC50,[18],> 50000 nM
same,IC50,[19],> 10000 nM
same,IC50,[28],> 10000 nM
same,IC50,[29],> 10000 nM
same,IC50,[26],22 nM
CC(C)COC(=O)c1ccc(NC(=O)[C@H](CCCNC(=N)N)NC(=O)C2CCC(CN)CC2)cc1 (stereo not given in full),IC50,[26],370000 nM
same,IC50,[1],15000 nM
CS(=O)(=O)c1cc(Cc2cc(C(=O)NCc3cnc4[nH]cc(Cl)c4c3)ccn2)ccc1Cn1ccccc1=O,IC50,[14],< 100 nM
Cc1cc(N)nc(C)c1CNc1ncnc2nc(Cc3ccc4ncc(C(F)(F)F)cc4c3)[nH]c12,IC50,[14],< 100 nM
NCc1cccc(-n2nc(C(N)=O)cc2C(=O)Nc2cc(C(NCC3CC3)c3ccccc3)ccc2F)c1 (stereo not given),IC50,[4],100 nM
same,Ki,[4],0.1 nM
NCC1CCC(C(=O)N[C@@H](Cc2ccccc2)C(=O)Nc2ccc(CC(=O)O)cc2)CC1 (stereo not given in full),IC50,[27],12000 nM
same,IC50,[30],350000 nM
same,IC50,[26],620000 nM
same,IC50,[1],1300 nM
COC(=O)c1ccc(NC(=O)[C@H](CCCCNC(=N)N)NC(=O)C2CCC(CN)CC2)cc1 (stereo not given in full),IC50,[1],18000 nM
COCc1nn(Cc2ccc(Cn3cc(C)cn3)cc2)cc1C(=O)NCc1cnc2[nH]cc(Cl)c2c1,IC50,[2],8.7 nM
N=C(N)NCCCC[C@H](NC(=O)C1CCC(CN)CC1)C(=O)Nc1ccc(C(=O)O)cc1 (stereo not given in full),IC50,[1],14000 nM
CC(=O)c1ccc(NC(=O)[C@H](Cc2ccccc2)NC(=O)C2CCC(CN)CC2)cc1 (stereo not given in full),IC50,[30],58000 nM
same,IC50,[26],21000 nM
same,IC50,[1],850 nM
Cc1nc(N)ccc1CNC(=O)c1ccnc(Cc2ccc(Cn3ccccc3=O)c(S(C)(=O)=O)c2)c1,IC50,[14],< 100 nM
Cc1cc(N)nc(C)c1CNC(=O)c1cncc(Cc2ccc3ncc(Cl)cc3c2)c1,IC50,[14],< 100 nM
